Experimental data as given in ChEMBL document CHEMBL3507680, “University of Dundee, Gates Library screen for HepG2 cell viability”.

Test: Human HepG2 cell viability assay in 384 well format
Type: toxicity, cell-based
Parameters: dose 125 nL, time 70.5 hour; concentration not given beside the values
Details: HepG2 cells, read-out: Inhibition

Row | Structure (SMILES) | cytotoxicity at 70.5 h [%]
1 | CC(C)c1nc(C(=O)N(C)c2ccc(Br)cn2)cs1 | -8.09
2 | Cc1nc(CN(C)C2CCN(CCn3cc(C#N)cn3)C2)no1 (stereo not given) | 8.59
3 | CC(C)(C)C(=O)N1CCC2(CC1)CC(Oc1ccccc1)CO2 (stereo not given) | 11.5
4 | CCNc1ccnc(NCC2(N(C)C)CCOCC2)n1 | -5.81
5 | Nc1ccnc(N2CCCC(CCc3ccccc3)(C(=O)O)C2)n1 (stereo not given) | -3.28
6 | CC(=O)N[C@@H]1CN(C(=O)c2cccc(C(F)(F)F)c2)C[C@H]1O | -4.74
7 | Cc1nc(CN(C)Cc2nc(-c3sccc3C)oc2C)no1 | -3
8 | COc1ccccc1OCCC(=O)N1CCCC1Cn1cc(C)cn1 (stereo not given) | -6.74
9 | Cc1ccnn1C(C)C(=O)Nc1cc(-c2ccncc2)[nH]n1 (stereo not given) | -6.01
10 | CC(C)n1c2ccccc2c2c1cc(C(=O)N(C)C)n2C(=O)N(C)C | -0.266
11 | COc1ccccc1CCNC(=O)CC1(Cn2cnnn2)CCCCC1 | -20.4
12 | CC(C)C(C)N(C)Cc1nnc(-c2ccco2)o1 (stereo not given) | 17.4
13 | NC(=O)C(Nc1cccc(CO)c1)c1ccc(Br)cc1 (stereo not given) | 6.7
14 | O=C(NC1CC1)N1CCCC2(CCNC2=O)C1 (stereo not given) | -3.68
15 | CN(Cc1ccco1)[C@@H]1CN(CC2CCOCC2)[C@@H]2CCCO[C@H]12 | -11.5
16 | Cc1nnc2n1CCN(C(=O)c1cnc3c(cnn3CC(C)C)c1)C2 | 25.8
17 | O=C(NCc1ccc(Cl)s1)NCc1nnc2n1CCCCC2 | -14.9
18 | Cc1nc2c(c(=O)[nH]1)CN(C(=O)CC[C@@H]1CCCN3CCCC[C@H]13)C2 | 24.5
19 | CC(C)(CC(=O)Nc1cccc(Oc2ccccn2)c1)C(=O)O | -5.32
20 | CC(=O)NCCC(=O)NCc1ccc(Br)cc1Cl | -0.899
21 | Cc1nc(-n2cnnc2)ccc1-c1cccc2c1CCNC2 | 6.99
22 | COc1cccc(CN(C)Cc2ccc(C#N)cc2)c1OC | -1.54
23 | CC(C)(CNC(=O)CSc1nnnn1C1CC1)c1ccccc1F | -7.67

Row | Structure (SMILES) | cytotoxicity at 70.5 h [%]
24 | FC(F)(F)c1cc(NCCCn2cccn2)nc(-c2cccnc2)n1 | 22.2
25 | C=C(C)COc1cccc(C(=O)NC(C)c2nnn[nH]2)c1 (stereo not given) | 18.4
26 | Cc1cnccc1NCCn1ccnc1C1CCOC1 (stereo not given) | -3.31
27 | COc1ccc(-c2nnc(SC(C)C(=O)NC3CC3)[nH]2)c(OC)c1 (stereo not given) | 30.9
28 | CC(C)c1nc(NC(=O)CCCn2cccc2)n(C)n1 | 3.43
29 | Cn1cc(CN2CCOC(c3nccnc3-c3cccc(F)c3)C2)cn1 (stereo not given) | 21.8
30 | CCS(=O)(=O)N1Cc2nccn2CC(Cn2nc(C)nc2C)C1 (stereo not given) | -13.6
31 | CN(c1ccc(CNC(=O)c2c[nH]c(=O)c(Cl)c2)cc1)C1CCCCC1 | 5.49
32 | CC[C@@H]1N(CC2CCOCC2)CCC[C@]12CCC(=O)N2 | -6.16
33 | COCc1cc(N2CCOCC2)n2nccc2n1 | -3.4
34 | CS(=O)(=O)NC[C@H]1Cn2c(-c3ccc(F)cc3)cnc2CO1 | -3.71
35 | CN(Cc1nc2ccccc2[nH]1)C(=O)CN(C)c1ccccc1 | -2.68
36 | O=C(Cn1ccc2c(Cl)cccc21)N[C@@H](C(=O)O)c1ccccc1 | 0.804
37 | Cc1ccsc1C(=O)NCC1COCc2c(C)nnn2C1 (stereo not given) | -1.54
38 | CC(C(=O)N1CCN(c2ccccc2)CC1)n1cc(Br)cn1 (stereo not given) | -2.65
39 | CC(C)N(Cc1ccc(C(=O)O)o1)C(C)C | -7.28
40 | CC(C)c1cc(NC(=O)c2ccc(C(=O)NC(C)(C)C)cc2)[nH]n1 | -4.05
41 | Cc1nnc2n1CCN(c1nn3cc(C(C)(C)C)nc3s1)C2 | -7.66
42 | Cc1cc(NCC2CCCO2)cc(=O)n1C (stereo not given) | -9.63
43 | CCOc1nnc(CN(C)C2CCCN(c3cccnn3)C2)s1 (stereo not given) | 3.52
44 | Cn1ccc(C(=O)N2CCCC(c3cc(O)n(C)n3)C2)n1 (stereo not given) | 28
45 | Cc1ccc2c(c1)OCCN2C(=O)c1ccc(=O)n(C)c1 | -5.4
46 | O=c1ccc(-c2ccccc2F)nn1CCN1CCCS1(=O)=O | -2.96

Row | Structure (SMILES) | cytotoxicity at 70.5 h [%]
47 | O=C(NCc1csc(Cc2ccccc2)n1)C1NCCc2[nH]cnc21 (stereo not given) | -2.44
48 | CN1CCCC(CCC(=O)N2CCc3[nH]c(-c4ccccc4)nc3C2)C1 (stereo not given) | 20.8
49 | CC(C)N1CCC(Cc2cc(-c3cccc(C(=O)O)c3)ncn2)C1 (stereo not given) | -15
50 | CC(C)NS(=O)(=O)c1cc(C(=O)O)cc(-c2ccccc2CO)c1 | -3.6
51 | Cc1cc(C(=O)N2CC[C@H](N3CCN(C)CC3)[C@H](CCCO)C2)n(C)n1 | -6.07
52 | CC(C(=O)NCc1cccs1)N1CCN(Cc2nccn2C)CC1 (stereo not given) | 13.2
53 | COC(=O)c1cccc(C(=O)N2CCCCC2CCn2ccnc2C)c1 (stereo not given) | -1.17
54 | Cn1ccnc1CN1CCC2(CC1)CN(c1ccccn1)CCO2 | 8.31
55 | CCc1nc(C2CCCN(C(=O)c3ccc4[nH]nnc4c3)C2)no1 (stereo not given) | -11
56 | Cc1nc(-c2ccsc2)ccc1C(=O)NC(C)CN1CCOCC1 (stereo not given) | -3.57
57 | Cc1cc(C)c2nc(C)cc(C(=O)NC(C)c3nnn[nH]3)c2c1 (stereo not given) | 6.58
58 | Cc1ccsc1CN1CC2(CCN(C(=O)C3CC3)CC2)CC1C(=O)O (stereo not given) | 10.8
59 | CS(=O)(=O)CCCNC(=O)Nc1sc2ccccc2c1Cl | -4.03
60 | Cc1ccc2c(c1)OC(C)CN2C(=O)Cc1ccc(C)nc1 (stereo not given) | -0.93
61 | CCOCC(=O)N1CCC(Cc2nnc(SC)n2C)CC1 | -3.88
62 | COc1ccc(F)c(CN(CCCn2ccnc2)Cc2ccc(C)s2)c1 | 45.5
63 | Cc1ccsc1CN(Cc1cccnc1)C1CC(C)(C)NC(C)(C)C1 | 5.95
64 | Cc1cnn(CC2CCCN2C(=O)c2cccnc2-n2cncn2)c1 (stereo not given) | -13.9
65 | O=C(O)[C@@H]1CN(C2CCOCC2)C[C@H]1C1CC1 | -7.25
66 | Cc1cc(CC(=O)NCC(O)c2ccc(OC(F)F)cc2)n[nH]1 (stereo not given) | -4.53
67 | COCCN1C[C@H]2CN(C(=O)c3ccc4c(c3)OCO4)CCN2C1=O | -3.46
68 | Cc1cnn(CC2CN(Cc3nc(-c4cccnc4)no3)CCO2)c1 (stereo not given) | -0.171
69 | CC(C)Cc1noc(CN2CCC(C(=O)NCC3CCCO3)CC2)n1 (stereo not given) | 10.6

Row | Structure (SMILES) | cytotoxicity at 70.5 h [%]
70 | CC(=O)N1CC(=O)N(c2ccccc2)CC12CCN(Cc1nccs1)C2 (stereo not given) | -3.72
71 | CCS(=O)(=O)NCCNCc1ccc(Cl)c2cccnc12 | -0.568
72 | COc1ccc(NC(=O)CCNc2ncccn2)cn1 | -30.9
73 | CC(C(=O)NCc1ccnc(N2CCOCC2)c1)n1cccn1 (stereo not given) | -10.1
74 | Fc1ccc(OCc2nnc([C@H]3CCN(Cc4ccncc4)C3)o2)cc1 | -6.85
75 | CC(CCN1CCC(n2cc(CCO)nn2)CC1)c1ccccc1 (stereo not given) | -8.84
76 | CS(=O)(=O)NCC1CCN(C(=O)Oc2ccccc2)CC1 | -3.79
77 | CN1CCC2(CC1)CN(C(=O)c1cnccn1)Cc1ccccc12 | -5.07
78 | O=C(NCCN1CCCC1)c1cc2c(s1)CCN2c1ncccn1 | -5.02
79 | O=C(Nc1ncnc2c1CCC2)c1cccc(F)c1 | 11.5
80 | CC1(C)CN(C(=O)Nc2cc(C(F)(F)F)c[nH]c2=O)CCO1 | -6.62
81 | CN(C)C(=O)CN1CCC(c2cccc(Cc3ccc(F)cc3)n2)CC1 | 15.8
82 | CCCS(=O)(=O)N1CCC(Oc2ccc(C#N)cc2)CC1 | 4.2
83 | Cc1ccc(CNC(=O)Nc2nccs2)cn1 | -4.14
84 | Oc1ccc(N2CCN(Cc3ccc(F)cc3Br)CC2)cc1 | -7.04
85 | O=C(CCc1nc2ccccc2[nH]1)N1CCCC(n2cccn2)C1 (stereo not given) | 2.61
86 | Nc1c(N2CCCC2)ncnc1N1CCOCC1 | 20.6
87 | Cc1cc(C(=O)N2C[C@@H](C(=O)O)[C@H](C(C)C)C2)cs1 | -2.46
88 | CCCNC(=O)NCc1nc(C)c(C)o1 | 7.79
89 | Cc1nnc([C@@]23CCO[C@@H]2CCN(Cc2ccc4c(c2)OCO4)C3)o1 | -2.95
90 | CCn1ccnc1C1CCN(C(=O)C(O)c2ccc(Cl)cc2)CC1 (stereo not given) | -2.92
91 | CN(c1cccc(C#N)c1)S(=O)(=O)c1cc(C(=O)O)ccc1Cl | -12.6
92 | CC(C)c1nccn1C1CCCN(C(=O)c2cccc3[nH]ncc23)C1 (stereo not given) | -8.02

Row | Structure (SMILES) | cytotoxicity at 70.5 h [%]
93 | COc1ccc(CN2C[C@H]3CCC[C@@H](CN(C)C4CC4)[C@H]3C2)cn1 | 10.8
94 | CSCc1cc(F)ccc1CNC(=O)N1CCOCC1 | -10.7
95 | COCCc1noc(CN(C)C2CCCN(c3cccnn3)C2)n1 (stereo not given) | 22.9
96 | N#Cc1ccsc1NC(=O)CCN1CCn2c(nnc2C2CC2)C1 | -7.52
97 | CC1(C(=O)NCCc2ccc(F)cc2)CCOCC1 | -7.61
98 | Cc1cc(C(=O)N2CCC3(C2)CN(c2cccnc2)C(=O)CN3C)[nH]n1 (stereo not given) | -10.2
99 | CC(=O)NCc1nnc2n1CCN(Cc1cccs1)C2 | -11.7
100 | c1cnc(NCc2noc3c2CN(C2CCOC2)CC3)nc1 (stereo not given) | -6.78
101 | Cc1noc(C)c1CN1CCN(Cc2ccncc2)c2ncccc2C1 | -7.22
102 | CCCN(Cc1ccccc1C)C(CC)CO (stereo not given) | -7.79
103 | Cc1ccc(CN2CCOC3(CCN(CC4CCOC4)CC3)C2)cc1 (stereo not given) | -1.57
104 | Cc1ccsc1[C@@H]1CCN(C(=O)Cn2cc3ccccc3n2)C[C@H]1O | 15.1
105 | CC(=O)N1CCOCC2(CN(Cc3ccccn3)CCO2)C1 (stereo not given) | -9.92
106 | N#CCCN(CCC#N)C(=O)c1cccc(N2CCNC2=O)c1 | -7.77
107 | COc1cc(OC)cc(-c2noc(C(N)CCSC)n2)c1 (stereo not given) | -2.69
108 | O=C(NCc1ccccc1F)C1=NOC2(CCNC2)C1 (stereo not given) | -10.8
109 | CN(C)C(=O)c1cccc(CCNS(C)(=O)=O)c1 | -2.26
110 | c1ccc(CNc2nc(N3CCOCC3)nc3nccnc23)cc1 | -12.1
111 | CN(C)Cc1csc(-c2nccn2CCc2cccnc2)c1 | -8
112 | CNC(=O)CN1CCCC12CCN(C(=O)c1ccccc1F)CC2 | -10.4
113 | CCCN1CCC(c2nc3ccc(-c4cccc(F)c4)cn3n2)CC1 | -7.17
114 | COc1ccc(-c2nnc([C@H]3CCN(CC(C)(C)C)C3)o2)cc1 | -1.13
115 | CC(=O)N1CCC2(CC1)C(=O)N(c1ccc(C)nc1)CCN2CC(C)C | -4.45
